Where two headings read alike, the source gives them in different places.
Tests used:
NQO1 = test: Induction of NQO1 (QR) activity in Hepa1c1c7 cells
[1] = system: MCF7 (human breast cancer cell line); test: Antiproliferative MTT assay, MCF7; format: cell-based; conditions: 72 h incubation, mean ± SD, n = 3, read-out: IC50 MCF-7
Protocol: (§1) The antiproliferative activity of the compounds according to the invention was determined by the MTT assay on the following cell lines: MCF7 (human breast cancer cell line), HCT116 (human colon cancer cell line), and CCL186 (normal human diploid embryonic lung fibroblast). […] MCF7 and CCL186 cells were cultured in Eagle's Minimum Essential Medium (EMEM) with 1 mM sodium pyruvate, 1.5 g/L sodium bicarbonate, 2 mM L-glutamine supplemented with 10% FBS and 0.01% antibiotics. HCT116 cells were cultured in McCoy's 5A Medium with 2.2 g/L sodium bicarbonate supplemented with […] and 0.01% antibiotics. Cells were plated at the following densities: 10000 cells/well (MCF7), 4000 cells/well (HCT116), 5000 cells/well (CCL186). They were grown for 24 h in a 96-well plate, with 100 μl of corresponding medium in each well. The test compounds were prepared in DMSO and diluted to a series of concentrations with medium. Not more than 1% DMSO (final concentration) was present in each well. The test compounds were incubated with the cells for 72 h, after which 100 μl MTT solution (0.5 mg/ml in 1× PBS) was added for 3 h and the cells lysed to release the formazan product. The latter was dissolved in DMSO (150 μl) and absorbance determined within 30 min at 590 nm on a microtitre plate reader. Cell survival was given by the expression:
(§2) Cell survival (%)=[(Acells+test compound−Ablank)/(Auntreated cells−Ablank)]×100
(§3) where A is the absorbance of formazan measured at 590 nm in the test (Acells+test compound), control (Auntreated cells) or blank (Ablank) wells. Each concentration of test compound was evaluated on 3 separate occasions. […] The MTT assay was also carried out on Hepa1c1c7 cells for the purpose of determining cytotoxicity of test compounds. The same procedure was adopted except that the incubation period of compound with cells was 48 h, instead of 72 h.
(§4) The compounds were initially screened at a fixed concentration of 10 μM on the human cancer cell lines HCT116 and MCF7 cells.

Hepa1c1c7 cells = test: MTT growth inhibition / cytotoxicity on Hepa1c1c7 cells; format: cell-based, murine; conditions: Mus musculus, Hepa-1c1c7, 48 h, highest concentration tested 25 μM
Protocol: as §1, §2, §3

HCT116 cells = test: Cell cycle of synchronized HCT116 cells by flow cytometry (FACS); format: cell-based, human; conditions: for Proportion of cells in G1 / Proportion of cells in G2/M / Proportion of cells in S / Proportion of cells in Sub-G1: 24 h; for type of cell cycle arrest caused: HCT116 cells, ≈1.5 × IC50, 24 h
Protocol: HCT116 cells were grown to confluence and maintained in this state for at least 5 days without change of media. The serum starved cells were then trypsinized and subcultured at densities of 5×10^5 cells/well in six-well plates. Growth media contained 10% fetal calf serum. The test compound was added either immediately to cells synchronized at G1 phase, or 24 h later when cells were synchronized at G2 phase. The cells were incubated with test compound for 24 h from the time of addition. After this time, the cells were harvested, trypsinized and fixed in 70% ice-cold ethanol for a minimum of 24 h. After centrifugation, the supernatant was discarded and the pellet was treated with RNase A (200 μg/ml) for 30 min at room temperature, followed by cell staining using propidium iodide at a final concentration of 20 μg/ml. The stained cells were then analyzed for cell cycle distribution in the sub-G1, G1, S and G2/M phases on a Dako Cytomation Cyan LX (Dako Colorado, Fort Collins, Colo., USA) equipped with an argon solid state laser (488 nm) using the Summit (version 4.3) software. Compounds were tested at a concentration of ≈1.5×IC50, with IC50 determined by the MTT assay on HCT116 cells.
To have a better understanding of the mechanisms underlying the antiproliferative activities of the compounds listed in Table 5, their effects on the cell cycle was investigated by fluorescence-activated cell sorter (FACS) analysis using flow cytometry. The experiments were designed to examine the effects of the test compounds on synchronized cell populations at the GI or G2/M phase. G1 synchronized cells were obtained by growing cells to confluence for up to 5 days and then stimulating their re-entry into the cell cycle by sub-culturing at lower densities. After 24 hours of growth, these cells would be aligned at the G2/M phase.
Cells aligned at the G2/M phase were similarly treated.

HuH7 = test: cells; format: cell-based, human; conditions: for IC50 / viability at 10 µM: Homo sapiens; for IC50: Huh-7, 72 h, read-out: IC50 HuH7; for viability at 10 µM: Huh-7, 72 h, vs vehicle-treated controls, read-out: Percentage viability HuH7; for SR(HuH7/THLE2) safety ratio: percentage viability at 10 μM normalized with THLE2
Protocol: (§5) Cells were plated at 5000-7000 cells/per well and incubated for 24 h before treatment. […] Cell Titer-Glo (Promega, Madison, Wis.) assay was performed according to manufacturer's instruction with luminescence detected on SpectraMax M5 (Molecular Devices, Sunnyvale, Calif.). Data was expressed as percentage of viability vs. vehicle-treated controls.
(§6) The anti-cancer potential of these compounds against HCC were tested using a phenotypic assay where compounds were screened over 100-fold concentration range (0.1 to 10 μM) using two representative liver cancer cell lines, HepG2 and HuH7. Additionally, THLE2 was employed as normal hepatocyte cell line to differentiate anti-cancer potential from non-specific cytotoxicities.
(§7) Cell viability assay shown in FIG. 2 was analyzed by Prism5 for the determination of respective IC50 values.
(§8) Cell viability was determined as described previous in Table 7. Percentage viability at 10 μM treatments was determined and safety ratios were calculated by normalizing survival in HCC cell lines to THLE2.

HepG2 = test: cells; format: cell-based, human; conditions: for IC50 / viability at 10 µM: Homo sapiens; for IC50: HepG2, 72 h, read-out: IC50 HepG2; for viability at 10 µM: HepG2, 72 h, vs vehicle-treated controls, read-out: Percentage viability HepG2; for SR(HepG2/THLE2) safety ratio: percentage viability at 10 μM normalized with THLE2
Protocol: as §5, §6, §7, §8

[2] = system: CCL186 (normal human diploid embryonic lung fibroblast); test: Antiproliferative MTT assay, CCL186; format: cell-based; conditions: for IC50: Homo sapiens, CCL186, MTT, 72 h incubation, mean ± SD, n = 3, read-out: IC50 CCL-186
Protocol: as §1, §2, §3

THLE2 = test: Cell viability assay (Cell Titer-Glo), THLE2 normal hepatocyte cell line; format: cell-based; conditions: Homo sapiens, THLE-2, 72 h, read-out: IC50 THLE2
Protocol: as §5, §6, §7

[3] = system: HCT116 (human colon cancer cell line); test: Antiproliferative MTT assay, HCT116; format: cell-based; conditions: 72 h incubation, mean ± SD
Protocol: as §1, §2, §3, §4

[4] = HCT 116 cells released from G1 Block, 15 μM
[5] = HCT 116 cells released from G2 Block, 15 μM
[6] = Homo sapiens, HCT-116, 72 h, n = 3
[7] = HCT 116 cells released from G2 Block, 2.5 μM

For `O=C1Nc2cc(Cl)ccc2/C1=C\c1cccc(C(F)(F)F)c1` [Compound 47, (E)-6-Chloro-3-(3-(trifluoromethyl)benzylidene)indolin-2-one], the NQO1 induction ratio (NQO1; 0.05 μM, read off from plot) was 5.20, the “NQO1/CYP1A1 Quotient” value (NQO1; both ratios at 0.05 μM) was 2.17 and the IC50 [1] was 3.8 ± 0.3 µM. The IC50 (Hepa1c1c7 cells) was 1.1 µM, the “Proportion of cells in G1” value (HCT116 cells; [4]) was 65.55% and the “Proportion of cells in G2/M” value (HCT116 cells; [4]) was 15.13%. The “Proportion of cells in S” value (HCT116 cells; [4]) was 7.10%, the “Proportion of cells in Sub-G1” value (HCT116 cells; [4]) was 12.39% and the “Proportion of cells in G1” value (HCT116 cells; [5]) was 53.47%. For the same molecule, the “Proportion of cells in G2/M” value (HCT116 cells; [5]) was 28.39%, the “Proportion of cells in S” value (HCT116 cells; [5]) was 8.05% and the “Proportion of cells in Sub-G1” value (HCT116 cells; [5]) was 10.62%. For the same molecule, the “type of cell cycle arrest caused” value (HCT116 cells) was “G1 arrest”, the IC50 (HuH7) was 0.5 µM and the viability at 10 µM (HuH7) was 3.3 ± 0.2%. For the same molecule, the “SR(HuH7/THLE2) safety ratio” value (HuH7) was 21.76, the IC50 (HepG2) was 0.6 µM and the viability at 10 µM (HepG2) was 1.1 ± 0.09%. The “SR(HepG2/THLE2) safety ratio” value (HepG2) was 65.27, the melting point was 204 to 207 °C and the IC50 [2] was 6.6 ± 0.5 µM. For the same molecule, the “selectivity ratio: IC50 CCL186/IC50 MCF7 or IC50 CCL186/IC50 HCT116” value ([2]; normal vs cancer cell line) was ~1, the IC50 (THLE2) was > 10 µM and the IC50 ([3]; n = 3, read-out: IC50 HCT-116) was 7.5 ± 0.4 µM. The IC50 [3, 6] was < 10 µM.
In the case of `COc1ccc2c(c1)NC(=O)/C2=C/c1ccc(OC)c(O)c1` [Compound 45, (E)-3-(3-Hydroxy-4-methoxybenzylidene)-6-methoxyindolin-2-one], the NQO1 induction ratio (NQO1; 1 μM, read off from plot of degree of induction versus concentration) is reported as 4.34, the “NQO1/CYP1A1 Quotient” value (NQO1; both ratios at 1 μM) is reported as 4.13 and the IC50 [1] is reported as 3.7 ± 0.3 µM. For the same molecule, the IC50 (Hepa1c1c7 cells) was 9.8 µM, the “Proportion of cells in G1” value (HCT116 cells; [4]) was 17.49% and the “Proportion of cells in G2/M” value (HCT116 cells; [4]) was 56.49%. The “Proportion of cells in S” value (HCT116 cells; [4]) was 21.13%, the “Proportion of cells in Sub-G1” value (HCT116 cells; [4]) was 5.26% and the “Proportion of cells in G1” value (HCT116 cells; [5]) was 26.01%. The “Proportion of cells in G2/M” value (HCT116 cells; [5]) was 43.57%, the “Proportion of cells in S” value (HCT116 cells; [5]) was 15.36% and the “Proportion of cells in Sub-G1” value (HCT116 cells; [5]) was 15.54%. For the same molecule, the “type of cell cycle arrest caused” value (HCT116 cells) was “G2 arrest”, the IC50 (HuH7) was 8 µM and the viability at 10 µM (HuH7) was 46.6 ± 1.8%. The “SR(HuH7/THLE2) safety ratio” value (HuH7) was 1.54, the IC50 (HepG2) was 1.4 µM and the viability at 10 µM (HepG2) was 19.9 ± 1.4%. For the same molecule, the “SR(HepG2/THLE2) safety ratio” value (HepG2) was 3.61, the melting point was 184 to 186 °C and the IC50 [2] was 11.3 ± 0.4 µM. For the same molecule, the IC50 (THLE2) was > 10 µM, the IC50 ([3]; n = 3, read-out: IC50 HCT-116) was 7.8 ± 0.9 µM and the IC50 [3, 6] was < 10 µM.
With `COc1cccc(/C=C2/C(=O)Nc3cc(OC)ccc32)c1` [Compound 42, (E)-6-Methoxy-3-(3-methoxybenzylidene)indolin-2-one] the NQO1 induction ratio (NQO1; 0.5 μM, read off from plot) was 3.08, the “NQO1/CYP1A1 Quotient” value (NQO1; both ratios at 0.5 μM) was 2.72 and the IC50 [1] was 1.2 ± 0.4 µM. The IC50 (Hepa1c1c7 cells) was 9.8 µM, the “Proportion of cells in G1” value (HCT116 cells; [7]) was 26.01% and the “Proportion of cells in G2/M” value (HCT116 cells; [7]) was 43.57%. For the same molecule, the “Proportion of cells in S” value (HCT116 cells; [7]) was 15.36%, the “Proportion of cells in Sub-G1” value (HCT116 cells; [7]) was 30.54% and the “type of cell cycle arrest caused” value (HCT116 cells) was “G2 arrest”. The IC50 (HuH7) was 4 µM, the viability at 10 µM (HuH7) was 49.2 ± 4% and the “SR(HuH7/THLE2) safety ratio” value (HuH7) was 0.79. For the same molecule, the IC50 (HepG2) was 2.2 µM, the viability at 10 µM (HepG2) was 20.7 ± 2% and the “SR(HepG2/THLE2) safety ratio” value (HepG2) was 1.89. The melting point was 161 to 163 °C, the IC50 [2] was 1.8 ± 0.2 µM and the IC50 (THLE2) was 1.2 µM. It also gave an IC50 ([3]; n = 3, read-out: IC50 HCT-116) of 1.3 ± 0.4 µM.

— US20110269812A1, “NOVEL BENZYLIDENE-INDOLINONE AND THEIR MEDICAL AND DIAGNOSTIC USES” (Agency for Science, Technology and Research, priority 2008, published 2011)
